The test system of experiment [1] is caterpillars, a mixture of Mamestra brassicae and Lacanobia oleracea. Put plainly: Potter tower spray on caterpillars, knockdown and mortality. The settings on record: read-out: Average of % corrected affected; for pest or weed control at 0.00625 % strength: 0.00625 % w/v; for pest or weed control at 0.0125 % strength: 0.0125 % w/v; for pest or weed control at 0.025 % strength: 0.025 % w/v; for pest or weed control at 0.05 % strength: 0.05 % w/v; for pest or weed control at 0.1 % strength: 0.1 % w/v. Format: in vivo. From the text:
(§1) Myzus persicae, Cabbage moth, Mamestra brassicae, diamond back moths, Plutella xylostella, red spider mites, Tetranychus urticae, whitefly, Trialeurodes vaporariorum, were obtained from specified laboratory cultures. Mixed sex and age aphids and mites, moth larvae and whitefly scale infested leaves were used in the experiments. Environmental conditions were closely monitored and recorded and were within the optimal range of the target species.
(§2) The compounds were screened at a range of five concentrations, diluted in DMSO. Some of the compounds were screened against aphids, whitefly and red spider mites and other compounds were screened against cabbage moth, and diamond black moths. A carrier only and an untreated control will also be conducted. Treatments were applied directly onto the insects within Petri dishes, using a potter tower.
(§3) Twenty mites and ten aphids, scales and moth larvae were placed within a Petri dish, lined with a suitable leaf disc on a damp cotton wool pad. Scales were already on leaves. The Petri dishes were then sprayed using a potter tower. The number of knocked down and anthropods were assessed at 24 and 48 hours post treatment. Five replicates were be performed for each treatment, for each species.
(§4) For Tables 2, 4, 5 and 6, the compounds were diluted in DMSO containing 1% v/v Tween 20™. For Tables 2, 4, 5 and 6, the caterpillars were a mixture of Mamestra brassicae and Lacanobia oleracea.

Another experiment relates to aphids, Myzus persicae. Put plainly: Potter tower spray on aphids, knockdown and mortality. It is filed as in vivo. The settings on record: Myzus persicae, read-out: Average of % corrected affected; for pest or weed control at 0.00625 % strength: 0.00625 % w/v; for pest or weed control at 0.0125 % strength: 0.0125 % w/v; for pest or weed control at 0.025 % strength: 0.025 % w/v; for pest or weed control at 0.05 % strength: 0.05 % w/v; for pest or weed control at 0.1 % strength: 0.1 % w/v.
Text: The compounds were screened for insecticidal efficacy against aphids, Myzus persicae, Cabbage moth, Mamestra brassicae, diamond black moths, Plutella xylostella, red spider mites, Tetranychus urticae, whitefly, Trialeurodes vaporariorum, in terms of knockdown and mortality.
as §1, §2, §3, §4

[2] abbreviates: 24 h, Caterpillars, 24 hours post application.
[3] abbreviates: 48 h, Caterpillars, 48 hours post application.
[4] abbreviates: 24 h, Aphids, 24 hours post application.
Setting [5] is: 48 h, Aphids, 48 hours post application.

Here are results for four compounds from patent publication US20160212997A1, “AGRICULTURAL CHEMICALS” (REDAG CROP PROTECTION LTD, priority 2013, published 2016).

Like-named read-outs stand apart in the source and are kept apart here.

Consider `COC(CN(Cc1ccc(Cl)nc1)C1=CC(=O)OC1)OC` [Compound 5, 3-[(6-Chloro-3-pyridyl)methyl-(2,2-dimethoxyethyl)amino]-2H-furan-5-one], for which, in experiment [1] (setting [2]), the pest or weed control at 0.00625 % strength was 1 to 19%, the pest or weed control at 0.0125 % strength was 1 to 19%, the pest or weed control at 0.025 % strength was in the range of 1 to 19% and the pest or weed control at 0.05 % strength lay in the range of 1 to 19%. Besides, the pest or weed control at 0.1 % strength in experiment [1] (setting [2]) lay in the range of 1 to 19%. For the same compound, in experiment [1] (setting [3]), the pest or weed control at 0.00625 % strength is 1 to 19%, the pest or weed control at 0.0125 % strength lay within 1 to 19%, the pest or weed control at 0.025 % strength lay in the range of 1 to 19% and the pest or weed control at 0.05 % strength is 1 to 19%. The pest or weed control at 0.1 % strength in experiment [1] (setting [3]) fell in the range of 20 to 39%. Moreover, in the experiment with aphids, Myzus persicae (setting [4]), the pest or weed control at 0.00625 % strength is 1 to 19%, the pest or weed control at 0.0125 % strength fell in the range of 1 to 19%, the pest or weed control at 0.025 % strength lay within 1 to 19% and the pest or weed control at 0.05 % strength is 20 to 39%. The pest or weed control at 0.1 % strength in the experiment with aphids, Myzus persicae (setting [4]) is 1 to 19%. Moreover, in the experiment on aphids, Myzus persicae (setting [5]), the pest or weed control at 0.00625 % strength is 1 to 19%, the pest or weed control at 0.0125 % strength is 1 to 19%, the pest or weed control at 0.025 % strength is 1 to 19% and the pest or weed control at 0.05 % strength was in the range of 20 to 39%. Besides, the pest or weed control at 0.1 % strength in the experiment on aphids, Myzus persicae (setting [5]) is 1 to 19%.
As for `N#CCN(Cc1ccc(Cl)nc1)C1=CC(=O)OC1` [Compound 7, 2-[(6-Chloro-3-pyridyl)methyl-(5-oxo-2H-furan-3-yl)amino]acetonitrile], in experiment [1] (setting [2]), the pest or weed control at 0.00625 % strength fell in the range of 1 to 19%, the pest or weed control at 0.0125 % strength fell in the range of 1 to 19%, the pest or weed control at 0.025 % strength lay in the range of 1 to 19% and the pest or weed control at 0.05 % strength is 0%. In experiment [1] (setting [2]), the pest or weed control at 0.1 % strength was in the range of 1 to 19%. In experiment [1] (setting [3]), the pest or weed control at 0.00625 % strength fell in the range of 1 to 19%, the pest or weed control at 0.0125 % strength is 0%, the pest or weed control at 0.025 % strength lay in the range of 1 to 19% and the pest or weed control at 0.05 % strength was 0%. Besides, the pest or weed control at 0.1 % strength in experiment [1] (setting [3]) fell in the range of 1 to 19%. Moreover, in the experiment with aphids, Myzus persicae (setting [4]), the pest or weed control at 0.00625 % strength fell in the range of 1 to 19%, the pest or weed control at 0.0125 % strength was in the range of 20 to 39%, the pest or weed control at 0.025 % strength was in the range of 20 to 39% and the pest or weed control at 0.05 % strength was 40 to 59%. Besides, the pest or weed control at 0.1 % strength in the experiment on aphids, Myzus persicae (setting [4]) fell in the range of 1 to 19%. Also, in the experiment on aphids, Myzus persicae (setting [5]), the pest or weed control at 0.00625 % strength is 40 to 59%, the pest or weed control at 0.0125 % strength lay within 40 to 59%, the pest or weed control at 0.025 % strength was in the range of 40 to 59% and the pest or weed control at 0.05 % strength is 40 to 59%. The pest or weed control at 0.1 % strength with aphids, Myzus persicae (setting [5]) lay within 1 to 19%.
In the case of `Cc1cc(C2=NOC(c3cc(Cl)cc(Cl)c3)(C(F)(F)F)C2)ccc1SCC(=O)NCC(F)(F)F` (centres unmarked) [Compound 15, 2-[4-[5-(3,5-dichlorophenyl)-5-(trifluoromethyl)-4H-isoxazol-3-yl]-2-methyl-phenyl]sulfanyl-N-(2,2,2-trifluoroethyl)acetamide, reference compound], in experiment [1] (24 h), the pest or weed control at 0.000125 % strength was in the range of 1 to 19%, the pest or weed control at 0.00025 % strength was 1 to 19%, the pest or weed control at 0.0005 % strength was 1 to 19% and the pest or weed control at 0.001 % strength is 1 to 19%. The pest or weed control at 0.002 % strength in experiment [1] (24 h) is 1 to 19%. In addition, in experiment [1] (48 h), the pest or weed control at 0.000125 % strength worked out at 0%, the pest or weed control at 0.00025 % strength was in the range of 1 to 19%, the pest or weed control at 0.0005 % strength fell in the range of 1 to 19% and the pest or weed control at 0.001 % strength fell in the range of 1 to 19%. The pest or weed control at 0.002 % strength in experiment [1] (48 h) lay within 1 to 19%. For the same compound, in the experiment on aphids, Myzus persicae (24 h), the pest or weed control at 0.000125 % strength is 1 to 19%, the pest or weed control at 0.00025 % strength fell in the range of 1 to 19%, the pest or weed control at 0.0005 % strength fell in the range of 1 to 19% and the pest or weed control at 0.001 % strength was 1 to 19%. Moreover, in the experiment on aphids, Myzus persicae (24 h), the pest or weed control at 0.002 % strength was 0%. In the experiment on aphids, Myzus persicae (48 h), the pest or weed control at 0.000125 % strength was in the range of 1 to 19%, the pest or weed control at 0.00025 % strength lay within 1 to 19%, the pest or weed control at 0.0005 % strength lay in the range of 1 to 19% and the pest or weed control at 0.001 % strength fell in the range of 20 to 39%. Further, in the experiment on aphids, Myzus persicae (48 h), the pest or weed control at 0.002 % strength lay in the range of 20 to 39%.
In the case of `Cc1cc(C2=NCC(c3cc(Cl)cc(Cl)c3)(C(F)(F)F)O2)ccc1SCC(=O)NCC(F)(F)F` (centres unmarked) [Compound 18, 2-[4-[5-(3,5-dichlorophenyl)-5-(trifluoromethyl)-4H-oxazol-2-yl]-2-methyl-phenyl]sulfanyl-N-(2,2,2-trifluoroethyl)acetamide], the pest or weed control at 0.000125 % strength is 1 to 19% in experiment [1] (24 h, Caterpillars, 0.000125 % w/v, 24 hours post application); 1 to 19% in experiment [1] (48 h, Caterpillars, 0.000125 % w/v, 48 hours post application); 1 to 19% in the experiment on aphids, Myzus persicae (24 h, Aphids, 0.000125 % w/v, 24 hours post application); 1 to 19% in the experiment on aphids, Myzus persicae (48 h, Aphids, 0.000125 % w/v, 48 hours post application). Besides, the pest or weed control at 0.00025 % strength in experiment [1] (24 h, Caterpillars, 0.00025 % w/v, 24 hours post application) was 0%; in experiment [1] (48 h, Caterpillars, 0.00025 % w/v, 48 hours post application), 1 to 19%; with aphids, Myzus persicae (24 h, Aphids, 0.00025 % w/v, 24 hours post application) it was 1 to 19%; in the experiment with aphids, Myzus persicae (48 h, Aphids, 0.00025 % w/v, 48 hours post application), 1 to 19%. For the same compound, the pest or weed control at 0.0005 % strength fell in the range of 1 to 19% in experiment [1] (24 h, Caterpillars, 0.0005 % w/v, 24 hours post application); 1 to 19% in experiment [1] (48 h, Caterpillars, 0.0005 % w/v, 48 hours post application); 1 to 19% in the experiment on aphids, Myzus persicae (24 h, Aphids, 0.0005 % w/v, 24 hours post application); 1 to 19% in the experiment with aphids, Myzus persicae (48 h, Aphids, 0.0005 % w/v, 48 hours post application). Also, the pest or weed control at 0.001 % strength in experiment [1] (24 h, Caterpillars, 0.001 % w/v, 24 hours post application) is 1 to 19%; in experiment [1] (48 h, Caterpillars, 0.001 % w/v, 48 hours post application) it was 1 to 19%; in the experiment on aphids, Myzus persicae (24 h, Aphids, 0.001 % w/v, 24 hours post application), 1 to 19%; in the experiment with aphids, Myzus persicae (48 h, Aphids, 0.001 % w/v, 48 hours post application) it was 1 to 19%. Besides, the pest or weed control at 0.002 % strength is 1 to 19% in experiment [1] (24 h, Caterpillars, 0.002 % w/v, 24 hours post application); 0% in experiment [1] (48 h, Caterpillars, 0.002 % w/v, 48 hours post application); 1 to 19% in the experiment on aphids, Myzus persicae (24 h, Aphids, 0.002 % w/v, 24 hours post application); 1 to 19% with aphids, Myzus persicae (48 h, Aphids, 0.002 % w/v, 48 hours post application).
